Values of other authors as cited in US20040170677A1, “Method of drug loading in liposomes by gradient” (priority 2002, published 2004).

Conditions: patients receiving doses greater than 550 mg per square meter of body area

In the case of `COc1cccc2c1C(=O)c1c(O)c3c(c(O)c1C2=O)C[C@@](O)(C(=O)CO)C[C@@H]3O[C@H]1C[C@H](N)[C@H](O)[C@H](C)O1` [doxorubicin, Doxorubicin], the “irreversible cardiomyopathy leading to congestive heart failure, share of patients” value is given as 1-10%.
